Data taken from BigSolDB 2.1.

CCCCCCCC(=O)NCC(=O)O
Conditions | solubility (mole fraction)
in 2-butanone, 273.15 K | 0.0123
in 2-butanone, 278.15 K | 0.0153
in 2-butanone, 283.15 K | 0.0199
in 2-butanone, 288.35 K | 0.0266
in 2-butanone, 293.05 K | 0.0304
in 2-butanone, 298.15 K | 0.0379
in 2-butanone, 303.15 K | 0.0457
in 2-butanone, 308.05 K | 0.0561
in 2-butanone, 313.25 K | 0.0667
in 2-butanone, 317.65 K | 0.0806
in 2-butanone, 323.15 K | 0.0951
in 2-pentanone, 273.15 K | 0.00491
in 2-pentanone, 278.15 K | 0.00666
in 2-pentanone, 283.15 K | 0.00984
in 2-pentanone, 288.35 K | 0.0148
in 2-pentanone, 293.05 K | 0.0178
in 2-pentanone, 298.15 K | 0.0244
in 2-pentanone, 303.15 K | 0.032
in 2-pentanone, 308.05 K | 0.0431
in 2-pentanone, 313.25 K | 0.0552
in 2-pentanone, 317.65 K | 0.0723
in 2-pentanone, 323.15 K | 0.0915
in acetone, 273.15 K | 0.0146
in acetone, 278.15 K | 0.0189
in acetone, 283.15 K | 0.0261
in acetone, 288.35 K | 0.0369
in acetone, 293.05 K | 0.0432
in acetone, 298.15 K | 0.0562
in acetone, 303.15 K | 0.0706
in acetone, 308.05 K | 0.0905
in acetone, 313.25 K | 0.111
in acetone, 317.65 K | 0.14
in acetone, 323.15 K | 0.171
in cyclohexanone, 273.15 K | 0.0112
in cyclohexanone, 278.15 K | 0.0149
in cyclohexanone, 283.15 K | 0.0214
in cyclohexanone, 288.35 K | 0.0315
in cyclohexanone, 293.05 K | 0.0378
in cyclohexanone, 298.15 K | 0.0508
in cyclohexanone, 303.15 K | 0.0656
in cyclohexanone, 308.05 K | 0.0866
in cyclohexanone, 313.25 K | 0.11
in cyclohexanone, 317.65 K | 0.141
in cyclohexanone, 323.15 K | 0.177
in cyclopentanone, 273.15 K | 0.0144
in cyclopentanone, 278.15 K | 0.019
in cyclopentanone, 283.15 K | 0.0269
in cyclopentanone, 288.35 K | 0.039
in cyclopentanone, 293.05 K | 0.0464
in cyclopentanone, 298.15 K | 0.0616
in cyclopentanone, 303.15 K | 0.0789
in cyclopentanone, 308.05 K | 0.103
in cyclopentanone, 313.25 K | 0.129
in cyclopentanone, 317.65 K | 0.164
in cyclopentanone, 323.15 K | 0.203
in ethanol, 273.15 K | 0.0116
in ethanol, 278.15 K | 0.0176
in ethanol, 283.15 K | 0.0266
in ethanol, 288.35 K | 0.0401
in ethanol, 293.05 K | 0.0575
in ethanol, 298.15 K | 0.0833
in ethanol, 303.15 K | 0.119
in ethanol, 308.05 K | 0.168
in ethanol, 313.25 K | 0.237
in ethanol, 317.65 K | 0.314
in ethanol, 323.15 K | 0.447
in ethyl acetate, 273.15 K | 0.00218
in ethyl acetate, 278.15 K | 0.00301
in ethyl acetate, 283.15 K | 0.00455
in ethyl acetate, 288.35 K | 0.00705
in ethyl acetate, 293.05 K | 0.00866
in ethyl acetate, 298.15 K | 0.0121
in ethyl acetate, 303.15 K | 0.0162
in ethyl acetate, 308.05 K | 0.0223
in ethyl acetate, 313.25 K | 0.029
in ethyl acetate, 317.65 K | 0.0389
in ethyl acetate, 323.15 K | 0.0502
in ethyl formate, 273.15 K | 0.0016
in ethyl formate, 278.15 K | 0.00226
in ethyl formate, 283.15 K | 0.00348
in ethyl formate, 288.35 K | 0.00555
in ethyl formate, 293.05 K | 0.00688
in ethyl formate, 298.15 K | 0.00981
in ethyl formate, 303.15 K | 0.0133
in ethyl formate, 308.05 K | 0.0186
in ethyl formate, 313.25 K | 0.0247
in ethyl formate, 317.65 K | 0.0336
in ethyl formate, 323.15 K | 0.0439
in isobutanol, 273.15 K | 0.0204
in isobutanol, 278.15 K | 0.0259
in isobutanol, 283.15 K | 0.0327
in isobutanol, 288.35 K | 0.0412
in isobutanol, 293.05 K | 0.0503
in isobutanol, 298.15 K | 0.0622
in isobutanol, 303.15 K | 0.0762
in isobutanol, 308.05 K | 0.0919
in isobutanol, 313.25 K | 0.112
in isobutanol, 317.65 K | 0.131
in isobutanol, 323.15 K | 0.159
in isopentanol, 273.15 K | 0.0276
in isopentanol, 278.15 K | 0.0347
in isopentanol, 283.15 K | 0.0434
in isopentanol, 288.35 K | 0.0543
in isopentanol, 293.05 K | 0.0657
in isopentanol, 298.15 K | 0.0805
in isopentanol, 303.15 K | 0.0978
in isopentanol, 308.05 K | 0.117
in isopentanol, 313.25 K | 0.142
in isopentanol, 317.65 K | 0.166
in isopentanol, 323.15 K | 0.2
in isopropanol, 273.15 K | 0.0153
in isopropanol, 278.15 K | 0.0193
in isopropanol, 283.15 K | 0.0239
in isopropanol, 288.35 K | 0.0298
in isopropanol, 293.05 K | 0.0362
in isopropanol, 298.15 K | 0.0441
in isopropanol, 303.15 K | 0.0533
in isopropanol, 308.05 K | 0.064
in isopropanol, 313.25 K | 0.0769
in isopropanol, 317.65 K | 0.0895
in isopropanol, 323.15 K | 0.108
in methanol, 273.15 K | 0.0347
in methanol, 278.15 K | 0.0478
in methanol, 283.15 K | 0.0653
in methanol, 288.35 K | 0.0891
in methanol, 293.05 K | 0.117
in methanol, 298.15 K | 0.156
in methanol, 303.15 K | 0.204
in methanol, 308.05 K | 0.263
in methanol, 313.25 K | 0.343
in methanol, 317.65 K | 0.425
in methanol, 323.15 K | 0.555
in methyl acetate, 273.15 K | 0.00203
in methyl acetate, 278.15 K | 0.00288
in methyl acetate, 283.15 K | 0.00448
in methyl acetate, 288.35 K | 0.00718
in methyl acetate, 293.05 K | 0.00895
in methyl acetate, 298.15 K | 0.0128
in methyl acetate, 303.15 K | 0.0174
in methyl acetate, 308.05 K | 0.0245
in methyl acetate, 313.25 K | 0.0327
in methyl acetate, 317.65 K | 0.0444
in methyl acetate, 323.15 K | 0.0586
in n-butanol, 273.15 K | 0.0228
in n-butanol, 278.15 K | 0.0313
in n-butanol, 283.15 K | 0.0425
in n-butanol, 288.35 K | 0.0577
in n-butanol, 293.05 K | 0.0755
in n-butanol, 298.15 K | 0.0993
in n-butanol, 303.15 K | 0.13
in n-butanol, 308.05 K | 0.167
in n-butanol, 313.25 K | 0.217
in n-butanol, 317.65 K | 0.268
in n-butanol, 323.15 K | 0.347
in n-pentanol, 273.15 K | 0.0226
in n-pentanol, 278.15 K | 0.0308
in n-pentanol, 283.15 K | 0.0413
in n-pentanol, 288.35 K | 0.0559
in n-pentanol, 293.05 K | 0.0724
in n-pentanol, 298.15 K | 0.095
in n-pentanol, 303.15 K | 0.123
in n-pentanol, 308.05 K | 0.157
in n-pentanol, 313.25 K | 0.202
in n-pentanol, 317.65 K | 0.249
in n-pentanol, 323.15 K | 0.32
in n-propanol, 273.15 K | 0.0174
in n-propanol, 278.15 K | 0.0254
in n-propanol, 283.15 K | 0.0363
in n-propanol, 288.35 K | 0.0522
in n-propanol, 293.05 K | 0.0715
in n-propanol, 298.15 K | 0.1
in n-propanol, 303.15 K | 0.137
in n-propanol, 308.05 K | 0.185
in n-propanol, 313.25 K | 0.251
in n-propanol, 317.65 K | 0.323
in n-propanol, 323.15 K | 0.439
